From ChEMBL document CHEMBL5030554, “Design, synthesis and biological evaluation of novel (E)-2-benzylidene-N-(3-cyano-4,5,6,7-tetrahydrobenzo[b]thiophen-2-yl)hydrazine-1-carboxamide derivatives as α-glucosidase inhibitors” (Bioorg Med Chem Lett, 2021)
The source made the active and inactive calls. The calls are words filed in the database; no cut-off is given here.

How the values were obtained:
Saccharomyces cerevisiae = assay: Inhibition of Saccharomyces cerevisiae alpha-glucosidase assessed as decrease in release of p-nitrophenol at 100 uM using pNPG as substrate preincubated for 15 min followed by substrate addition and measured after 5 mins by spectrophotometric method relative to control; settings: time 20.0 min
[1] = Inhibition of Saccharomyces cerevisiae alpha-glucosidase assessed as decrease in release of p-nitrophenol using pNPG as substrate preincubated for 15 min followed by substrate addition and measured after 5 mins by spectrophotometric method
[2] = Cytotoxicity against human HepG2 cells assessed as cell viability at 100 uM by MTT assay relative to control; type: cell-based; settings: read-out: Activity
[3] = Cytotoxicity against human L02 cells assessed as cell viability at 100 uM by MTT assay relative to control; type: cell-based; settings: read-out: Activity
Rattus norvegicus [4] = organism: Rattus norvegicus; assay: Hypoglycemic activity in sucrose-treated Sprague-Dawley rat assessed as reduction in blood glucose level measured after 30 mins by oral sucrose tolerance test; type: functional, organism-based
Rattus norvegicus [5] = organism: Rattus norvegicus; assay: Hypoglycemic activity in sucrose-treated Sprague-Dawley rat assessed as reduction in blood glucose AUC measured after 2 hrs by oral sucrose tolerance test; type: functional, organism-based
Homo sapiens [6] = organism: Homo sapiens; assay: Non-competitive inhibition of alpha-glucosidase (unknown origin) assessed as decrease in Vmax with constant Km using varying levels of PNP glycoside as substrate preincubated for 30 mins followed by substrate addition and measured for 60 seconds by Lineweaver-Burk plot analysis
Homo sapiens [7] = organism: Homo sapiens; assay: Binding affinity to alpha-glucosidase (unknown origin) assessed as quenching of intrinsic tryptophan fluorescence of the enzyme by FRET assay

Row | Compound | inhibition (Saccharomyces cerevisiae) | IC50 [1] | other results
1 | Cc1cc(C)c(/C=N/NC(=O)Nc2sc3c(c2C#N)CCCC3)c(C)c1 | 52.3% | 49.6 µM | –
2 | N#Cc1c(NC(=O)N/N=C/c2ccccc2OCc2ccccc2)sc2c1CCCC2 | 48% | – | –
3 | N#Cc1c(NC(=O)NCc2ccccc2)sc2c1CCCC2 | – | 63.1 µM | –
4 | Cc1cc(/C=N/NC(=O)Nc2sc3c(c2C#N)CCCC3)ccc1O | 72.2% | 54.4 µM | –
5 | Cc1ccc(/C=N/NC(=O)Nc2sc3c(c2C#N)CCCC3)cc1 | 85.1% | 29.8 µM | –
6 | N#Cc1c(NC(=O)N/N=C/c2ccccc2O)sc2c1CCCC2 | 44.9% | – | –
7 | COc1cccc2c1C(=O)c1c(O)c3c(c(O)c1C2=O)C[C@@](O)(C(=O)CO)C[C@@H]3O[C@H]1C[C@H](N)[C@H](O)[C@H](C)O1 [DOXORUBICIN] | – | – | viability at 100 µM [2]: 4%; viability at 100 µM [3]: 4%
8 | COc1ccc(/C=N/NC(=O)Nc2sc3c(c2C#N)CCCC3)cc1 | 18.8% | – | –
9 | CCN(CC)c1ccc(/C=N/NC(=O)Nc2sc3c(c2C#N)CCCC3)c(O)c1 | 64.2% | 32.5 µM | –
10 | N#Cc1c(NC(=O)N/N=C/c2ccc(N(c3ccccc3)c3ccccc3)cc2)sc2c1CCCC2 | 89.7% | 13.5 µM | –
11 | N#Cc1c(NC(=O)N/N=C/c2ccc(N3CCCC3)cc2)sc2c1CCCC2 | 70.7% | 68.4 µM | –
12 | N#Cc1c(NC(=O)N/N=C/c2cccc(O)c2O)sc2c1CCCC2 | 68.2% | 29.5 µM | –
13 | CC(C)c1ccc(/C=N/NC(=O)Nc2sc3c(c2C#N)CCCC3)cc1 | 64.2% | 48.6 µM | –
14 | N#Cc1c(NC(=O)N/N=C/c2cccc(O)c2)sc2c1CCCC2 | 48.4% | – | –
15 | N#Cc1c(NC(=O)N/N=C/c2ccc(O)c(O)c2)sc2c1CCCC2 | 86.3% | 9.26 µM | viability at 100 µM [2]: 92.7%; Activity (Rattus norvegicus [4]): Active; Activity (Rattus norvegicus [5]): Active; inhibition (Homo sapiens [6]): Active; Activity (Homo sapiens [7]): Dose-Dependent Effect; viability at 100 µM [3]: 96%
16 | CCN(CC)c1ccc(/C=N/NC(=O)Nc2sc3c(c2C#N)CCCC3)cc1 | 77.3% | 32.1 µM | –
17 | Cc1cc(/C=N/NC(=O)Nc2sc3c(c2C#N)CCCC3)cc(C)c1O | 35.4% | – | –
18 | COc1cc(/C=N/NC(=O)Nc2sc3c(c2C#N)CCCC3)cc(OC)c1 | 36.4% | – | –
19 | N#Cc1c(NC(=O)N/N=C/c2ccccc2)sc2c1CCCC2 | 31.4% | – | –

Row | Compound | inhibition (Saccharomyces cerevisiae) | IC50 [1] | other results
20 | N#Cc1c(NC(=O)N/N=C/c2ccc(Oc3ccccc3)cc2)sc2c1CCCC2 | 72.5% | 21.8 µM | –
21 | Cc1ccc(/C=N/NC(=O)Nc2sc3c(c2C#N)CCCC3)c(O)c1 | 34.9% | – | –
22 | N#Cc1c(NC(=O)N/N=C/c2cccc(OCc3ccccc3)c2)sc2c1CCCC2 | 40.5% | – | –
23 | COC(=O)c1ccc(/C=N/NC(=O)Nc2sc3c(c2C#N)CCCC3)cc1 | 7.69% | – | –
24 | CN(C)c1ccc(/C=N/NC(=O)Nc2sc3c(c2C#N)CCCC3)cc1 | 67.2% | 46.4 µM | –
25 | COc1ccc(/C=N/NC(=O)Nc2sc3c(c2C#N)CCCC3)cc1O | 27.8% | – | –
26 | N#Cc1c(NC(=O)N/N=C/c2cc(O)cc(O)c2)sc2c1CCCC2 | 89.5% | 11.4 µM | viability at 100 µM [2]: 93.8%; Activity (Rattus norvegicus [4]): Active; Activity (Rattus norvegicus [5]): Active; inhibition (Homo sapiens [6]): Active; Activity (Homo sapiens [7]): Dose-Dependent Effect; viability at 100 µM [3]: 96.6%
27 | N#Cc1c(NC(=O)N/N=C/c2ccc(O)c(O)c2O)sc2c1CCCC2 | 85.9% | 17.7 µM | –
28 | Cc1cccc(/C=N/NC(=O)Nc2sc3c(c2C#N)CCCC3)c1O | 29.5% | – | –
29 | C[C@H]1O[C@H](O[C@H]2[C@H](O)[C@@H](O)[C@@H](O[C@H]3[C@H](O)[C@@H](O)C(O)O[C@@H]3CO)O[C@@H]2CO)[C@H](O)[C@@H](O)[C@@H]1N[C@H]1C=C(CO)[C@@H](O)[C@H](O)[C@H]1O (stereo partly drawn) [ACARBOSE] | – | 440 µM | Activity (Rattus norvegicus [4]): Active
30 | N#Cc1c(NC(=O)N/N=C/c2ccc(O)cc2)sc2c1CCCC2 | 81.7% | 20.7 µM | –
31 | N#Cc1c(NC(=O)N/N=C/c2ccc3c(c2)OC=CO3)sc2c1CCCC2 | 35.7% | – | –
32 | COc1cc(/C=N/NC(=O)Nc2sc3c(c2C#N)CCCC3)cc(OC)c1O | 0.7% | – | –
33 | Cc1ccc(/C=N/NC(=O)Nc2sc3c(c2C#N)CCCC3)cc1C | 74.8% | 38.9 µM | –
34 | N#Cc1c(NC(=O)N/N=C/c2ccc([N+](=O)[O-])cc2)sc2c1CCCC2 | 57.6% | 67.4 µM | –
35 | N#Cc1c(NC(=O)N/N=C/c2ccc(O)cc2O)sc2c1CCCC2 | 63.1% | 33.8 µM | –
36 | CCc1ccc(/C=N/NC(=O)Nc2sc3c(c2C#N)CCCC3)cc1 | 89.5% | 25.4 µM | –
37 | Cc1cccc(/C=N/NC(=O)Nc2sc3c(c2C#N)CCCC3)c1C | 59.5% | 49.2 µM | –
38 | N#Cc1c(NC(=O)N/N=C/c2ccc(OCc3ccccc3)cc2)sc2c1CCCC2 | 66.6% | 26.5 µM | –
